What was measured:
[1] = test system: HIV-1 envelope pseudotypes; format: cell-based
VSV-G pseudotypes = format: cell-based, vesicular stomatitis virus
[2] = test system: H5HA and N1NA pseudotypes; format: cell-based, H5N1
[3] = test system: pseudotypes expressing H5HA and N1NA; format: cell-based, H5N1

## CCOC(=O)C1=C[C@@H](OC(CC)CC)[C@H](NC(C)=O)[C@@H](N)C1 [oseltamivir phosphate]
[1]
  effect on transduction efficiency: did not reduce
VSV-G pseudotypes
  effect on transduction efficiency: did not reduce
[2]
  effect on transduction efficiency: did not reduce
[3]
  effect on transduction efficiency: marked dose-dependent decrease

Source: patent publication US20100137412A1 (priority 2008, published 2010)
